In PMC5218480 (PLoS ONE, 2017):

Test system: MV-4-11 cells
Experiment: Gene expression microarray analysis (Affymetrix PrimeView) and GSEA
Assay type: cell-based, human
Set-up: RFU PODN (11730768_x_at) / Fold change /veh PODN (11730768_x_at) / RFU LINC00158 (11744669_a_at) / Fold change /veh LINC00158 (11744669_a_at) / RFU DUSP10 (11751237_a_at) / Fold change /veh DUSP10 (11751237_a_at) / RFU ID3 (11757404_x_at) / Fold change /veh ID3 (11757404_x_at) / RFU PLEKHG5 (11737974_s_at) / Fold change /veh PLEKHG5 (11737974_s_at) / RFU LRRC4B (11730491_at) / Fold change /veh LRRC4B (11730491_at) / RFU GIMAP4 (11747438_a_at) / Fold change /veh GIMAP4 (11747438_a_at) / RFU KRT8 (11758183_x_at) / Fold change /veh KRT8 (11758183_x_at) / RFU CNN1 (11734310_a_at) / Fold change /veh CNN1 (11734310_a_at) / RFU VPS37D (11726825_at) / Fold change /veh VPS37D (11726825_at) / RFU C10orf10 (11716522_x_at) / Fold change /veh C10orf10 (11716522_x_at) / RFU KIR2DL2 /// KIR2DL4 /// KIR2DL5A /// KIR2DL5B /// KIR2DS1 /// KIR2DS2 /// KIR2DS3 /// KIR2DS4 /// KIR3DL3 /// KIR3DL3 /// KIR3DS1 (11738374_at) / Fold change /veh KIR2DL2 /// KIR2DL4 /// KIR2DL5A /// KIR2DL5B /// KIR2DS1 /// KIR2DS2 /// KIR2DS3 /// KIR2DS4 /// KIR3DL3 /// KIR3DL3 /// KIR3DS1 (11738374_at) / RFU C1QL1 (11718748_at) / Fold change /veh C1QL1 (11718748_at) / RFU TMPRSS4 (11747572_a_at) / Fold change /veh TMPRSS4 (11747572_a_at) / RFU HAMP (11756126_x_at) / Fold change /veh HAMP (11756126_x_at) / RFU RNFT2 (11725882_a_at) / Fold change /veh RNFT2 (11725882_a_at) / RFU NR4A2 (11747474_a_at) / Fold change /veh NR4A2 (11747474_a_at) / RFU ABCC12 (11746883_a_at) / Fold change /veh ABCC12 (11746883_a_at) / RFU TMEM136 (11760407_x_at) / Fold change /veh TMEM136 (11760407_x_at) / RFU CLDN22 /// WWC2 (11732394_at) / Fold change /veh CLDN22 /// WWC2 (11732394_at) / RFU HLA-DPB1 (11760878_x_at) / Fold change /veh HLA-DPB1 (11760878_x_at) / RFU SPINT1 (11716480_a_at) / Fold change /veh SPINT1 (11716480_a_at) / RFU GAP43 (11754022_s_at) / Fold change /veh GAP43 (11754022_s_at) / RFU A4GNT (11735810_at) / Fold change /veh A4GNT (11735810_at) / RFU PRB3 (11715151_x_at) / Fold change /veh PRB3 (11715151_x_at) / RFU TUBB4B (11761932_at) / Fold change /veh TUBB4B (11761932_at) / RFU CAPN14 (11732068_a_at) / Fold change /veh CAPN14 (11732068_a_at) / RFU TMCC2 (11721928_a_at) / Fold change /veh TMCC2 (11721928_a_at) / RFU IRGQ (11745062_a_at) / Fold change /veh IRGQ (11745062_a_at) / RFU FAM174B (11720279_a_at) / Fold change /veh FAM174B (11720279_a_at) / RFU TMPRSS4 (11748680_a_at) / Fold change /veh TMPRSS4 (11748680_a_at) / RFU FAM212B (11763350_a_at) / Fold change /veh FAM212B (11763350_a_at) / RFU PLEKHG5 (11743358_a_at) / Fold change /veh PLEKHG5 (11743358_a_at) / RFU ZSCAN30 (11745921_a_at) / Fold change /veh ZSCAN30 (11745921_a_at) / RFU CMKLR1 (11741424_a_at) / Fold change /veh CMKLR1 (11741424_a_at) / RFU LOC101060620 /// MAPK8IP1 (11723275_at) / Fold change /veh LOC101060620 /// MAPK8IP1 (11723275_at) / RFU SPTSSB (11747773_x_at) / Fold change /veh SPTSSB (11747773_x_at) / RFU PRSS12 (11739890_at) / Fold change /veh PRSS12 (11739890_at) / RFU BIN1 (11741810_x_at) / Fold change /veh BIN1 (11741810_x_at) / RFU WNT11 (11732464_a_at) / Fold change /veh WNT11 (11732464_a_at) / RFU C10orf10 (11716521_a_at) / Fold change /veh C10orf10 (11716521_a_at) / RFU C5orf56 (11738089_at) / Fold change /veh C5orf56 (11738089_at) / RFU CYB561 (11721691_x_at) / Fold change /veh CYB561 (11721691_x_at) / RFU ANKRD19P (11752326_a_at) / Fold change /veh ANKRD19P (11752326_a_at) / RFU OR2T12 /// OR2T33 /// OR2T8 (11738714_s_at) / Fold change /veh OR2T12 /// OR2T33 /// OR2T8 (11738714_s_at) / RFU VCAN (11748164_a_at) / Fold change /veh VCAN (11748164_a_at) / RFU JSRP1 (11732532_at) / Fold change /veh JSRP1 (11732532_at) / RFU KRTAP10-11 (11738290_x_at) / Fold change /veh KRTAP10-11 (11738290_x_at) / RFU MYO3A (11730013_a_at) / Fold change /veh MYO3A (11730013_a_at) / RFU EBF3 (11725865_a_at) / Fold change /veh EBF3 (11725865_a_at) / RFU CAMK2N1 (11719241_x_at) / Fold change /veh CAMK2N1 (11719241_x_at) / RFU C5orf56 (11738088_a_at) / Fold change /veh C5orf56 (11738088_a_at) / RFU OLFML3 (11715873_a_at) / Fold change /veh OLFML3 (11715873_a_at) / RFU LOC100653217 /// NTM (11731650_a_at) / Fold change /veh LOC100653217 /// NTM (11731650_a_at) / RFU MAPK11 (11762145_a_at) / Fold change /veh MAPK11 (11762145_a_at) / RFU FIZ1 (11724087_x_at) / Fold change /veh FIZ1 (11724087_x_at) / RFU OASL (11726364_x_at) / Fold change /veh OASL (11726364_x_at) / RFU SOX15 (11748057_x_at) / Fold change /veh SOX15 (11748057_x_at) / RFU CD79A (11719716_a_at) / Fold change /veh CD79A (11719716_a_at) / RFU HIST1H1D (11736915_at) / Fold change /veh HIST1H1D (11736915_at) / RFU CASKIN2 (11723855_a_at) / Fold change /veh CASKIN2 (11723855_a_at) / RFU LOC730098 (11760151_x_at) / Fold change /veh LOC730098 (11760151_x_at) / RFU OR4N2 (11742367_at) / Fold change /veh OR4N2 (11742367_at) / RFU PRRT2 (11749266_a_at) / Fold change /veh PRRT2 (11749266_a_at) / RFU SNX32 (11753110_a_at) / Fold change /veh SNX32 (11753110_a_at) / RFU CDHR5 (11726645_a_at) / Fold change /veh CDHR5 (11726645_a_at) / RFU RCAN1 (11760418_a_at) / Fold change /veh RCAN1 (11760418_a_at) / RFU FAM167A (11723789_a_at) / Fold change /veh FAM167A (11723789_a_at) / RFU FAM26E (11764081_at) / Fold change /veh FAM26E (11764081_at) / RFU ISYNA1 (11749810_s_at) / Fold change /veh ISYNA1 (11749810_s_at) / RFU ACY1 (11761880_at) / Fold change /veh ACY1 (11761880_at) / RFU 11764098_at / Fold change /veh 11764098_at / RFU SAMD14 (11745864_x_at) / Fold change /veh SAMD14 (11745864_x_at) / RFU NPB (11741838_a_at) / Fold change /veh NPB (11741838_a_at) / RFU TMPRSS6 (11731388_a_at) / Fold change /veh TMPRSS6 (11731388_a_at) / RFU KRTAP10-2 (11738614_at) / Fold change /veh KRTAP10-2 (11738614_at) / RFU ARHGAP8 /// PRR5-ARHGAP8 (11727945_x_at) / Fold change /veh ARHGAP8 /// PRR5-ARHGAP8 (11727945_x_at) / RFU KRTAP5-7 /// NADSYN1 (11734609_at) / Fold change /veh KRTAP5-7 /// NADSYN1 (11734609_at) / RFU RASL12 (11751679_a_at) / Fold change /veh RASL12 (11751679_a_at) / RFU CDKN2B (11736163_a_at) / Fold change /veh CDKN2B (11736163_a_at) / RFU PRF1 (11729649_at) / Fold change /veh PRF1 (11729649_at) / RFU, ZNF638 /// ZNF638-IT1 / Fold change vs veh, ZNF638 /// ZNF638-IT1 / RFU, PANK3 / Fold change vs veh, PANK3 / RFU, SH3YL1 / Fold change vs veh, SH3YL1 / RFU, ZEB2 / Fold change vs veh, ZEB2 / RFU, NRIP1 / Fold change vs veh, NRIP1 / RFU, PTTG1IP / Fold change vs veh, PTTG1IP / RFU, CAPN2 / Fold change vs veh, CAPN2 / RFU, MED14 / Fold change vs veh, MED14 / RFU, SNORA58 / Fold change vs veh, SNORA58 / RFU, C1orf63 / Fold change vs veh, C1orf63 / RFU, LRRFIP1 / Fold change vs veh, LRRFIP1 / RFU, NDUFAF7 / Fold change vs veh, NDUFAF7 / RFU, SLC12A2 / Fold change vs veh, SLC12A2 / RFU, IBTK / Fold change vs veh, IBTK / RFU, ESF1 / Fold change vs veh, ESF1 / Fold change vs veh, TMEM50B / RFU, TAOK1 / Fold change vs veh, TAOK1 / RFU, ACBD3 / Fold change vs veh, ACBD3 / RFU, TMA16 / Fold change vs veh, TMA16 / RFU, RWDD3 / Fold change vs veh, RWDD3 / RFU, BCAT1 / Fold change vs veh, BCAT1 / RFU, EDEM3 / Fold change vs veh, EDEM3 / RFU, TMEM33 / Fold change vs veh, TMEM33 / RFU, WDR75 / Fold change vs veh, WDR75 / RFU, AHCTF1 / Fold change vs veh, AHCTF1 / RFU, TFRC / Fold change vs veh, TFRC / RFU, ZDHHC17 / Fold change vs veh, ZDHHC17 / RFU, NOM1 / Fold change vs veh, NOM1 / RFU, ARL8B / Fold change vs veh, ARL8B / RFU, ZBTB11 / Fold change vs veh, ZBTB11 / RFU, TAMM41 / Fold change vs veh, TAMM41 / RFU, KIAA1704 /// LOC100996395 / Fold change vs veh, KIAA1704 /// LOC100996395 / RFU, ING1 / Fold change vs veh, ING1 / RFU, TRMT61B / Fold change vs veh, TRMT61B / RFU, FUBP3 / Fold change vs veh, FUBP3 / RFU, TP53 / Fold change vs veh, TP53 / RFU, TNKS2 / Fold change vs veh, TNKS2 / RFU, ZFP14 / Fold change vs veh, ZFP14 / RFU, ACTR2 / Fold change vs veh, ACTR2 / RFU, PPP3R1 / Fold change vs veh, PPP3R1 / RFU, PIK3R1 / Fold change vs veh, PIK3R1 / RFU, HNRNPA1 / Fold change vs veh, HNRNPA1 / RFU, RNF170 / Fold change vs veh, RNF170 / RFU, ZNF28 / Fold change vs veh, ZNF28 / RFU, RNGTT / Fold change vs veh, RNGTT / RFU, OGT / Fold change vs veh, OGT / RFU, BRD1 / Fold change vs veh, BRD1 / RFU, MARS / Fold change vs veh, MARS / RFU, ZNF655 / Fold change vs veh, ZNF655 / RFU, FAHD1 / Fold change vs veh, FAHD1 / RFU, BDP1 / Fold change vs veh, BDP1 / RFU, LRRCC1 / Fold change vs veh, LRRCC1 / RFU, ARID1A / Fold change vs veh, ARID1A / RFU, ZNF146 / Fold change vs veh, ZNF146 / RFU, ZNF330 / Fold change vs veh, ZNF330 / RFU, GPN3 / Fold change vs veh, GPN3 / RFU, C9orf123 / Fold change vs veh, C9orf123 / RFU, N4BP2L2 / Fold change vs veh, N4BP2L2 / RFU, ARFIP1 / Fold change vs veh, ARFIP1 / RFU, FAM179B / Fold change vs veh, FAM179B / RFU, BCL10 / Fold change vs veh, BCL10 / RFU, UHRF1BP1L / Fold change vs veh, UHRF1BP1L / RFU, BET1 / Fold change vs veh, BET1 / RFU, CNOT2 / Fold change vs veh, CNOT2 / RFU, ZNF268 / Fold change vs veh, ZNF268 / Fold change vs veh, ZNF507 / RFU, DGCR2 / Fold change vs veh, DGCR2 / RFU, WDSUB1 / Fold change vs veh, WDSUB1 / Fold change vs veh, HSP90B1 /// MIR3652 / RFU, ADSS / Fold change vs veh, ADSS / RFU, GK / Fold change vs veh, GK / RFU, ZNF148 / Fold change vs veh, ZNF148 / RFU, TAF9 / Fold change vs veh, TAF9 / RFU, SLC1A5 / Fold change vs veh, SLC1A5 / RFU, SLMO2 / Fold change vs veh, SLMO2 / RFU, ABCC4 / Fold change vs veh, ABCC4 / RFU, LOC101060439 /// RAP1B / Fold change vs veh, LOC101060439 /// RAP1B / RFU, RFX7 / Fold change vs veh, RFX7 / RFU, GTPBP10 / Fold change vs veh, GTPBP10 / RFU, CNEP1R1 / Fold change vs veh, CNEP1R1 / RFU, BIVM-ERCC5 /// ERCC5 / Fold change vs veh, BIVM-ERCC5 /// ERCC5 / RFU, ILF3 / Fold change vs veh, ILF3 / RFU 11762660_at / Fold change /veh 11762660_at / RFU VCAN (11757783_s_at) / Fold change /veh VCAN (11757783_s_at) / RFU DDX43 (11728927_at) / Fold change /veh DDX43 (11728927_at) / RFU KRT8 (11758188_x_at) / Fold change /veh KRT8 (11758188_x_at) / RFU NKD1 (11759106_at) / Fold change /veh NKD1 (11759106_at) / RFU SRD5A1 (11742802_a_at) / Fold change /veh SRD5A1 (11742802_a_at) / RFU TPSAB1 /// TPSB2 (11721975_s_at) / Fold change /veh TPSAB1 /// TPSB2 (11721975_s_at) / RFU GSTM3 (11746129_a_at) / Fold change /veh GSTM3 (11746129_a_at) / RFU IL23R (11737362_x_at) / Fold change /veh IL23R (11737362_x_at) / RFU TMEM51 (11727254_a_at) / Fold change /veh TMEM51 (11727254_a_at) / RFU PIWIL2 (11732686_x_at) / Fold change /veh PIWIL2 (11732686_x_at) / RFU ORM1 (11744905_x_at) / Fold change /veh ORM1 (11744905_x_at) / RFU CCDC152 (11743942_at) / Fold change /veh CCDC152 (11743942_at) / RFU ECM1 (11717891_a_at) / Fold change /veh ECM1 (11717891_a_at) / RFU IL23R (11748794_a_at) / Fold change /veh IL23R (11748794_a_at) / RFU TNFAIP8L3 (11732012_x_at) / Fold change /veh TNFAIP8L3 (11732012_x_at) / RFU MBOAT4 (11741988_at) / Fold change /veh MBOAT4 (11741988_at) / RFU 11764193_at / Fold change /veh 11764193_at / RFU TMEM53 (11763286_at) / Fold change /veh TMEM53 (11763286_at) / RFU MAGEB2 (11727129_at) / Fold change /veh MAGEB2 (11727129_at) / RFU TMEM200A (11744735_a_at) / Fold change /veh TMEM200A (11744735_a_at) / RFU CCDC152 (11751479_a_at) / Fold change /veh CCDC152 (11751479_a_at) / RFU FAM211A (11726209_a_at) / Fold change /veh FAM211A (11726209_a_at) / RFU RGS16 (11746705_a_at) / Fold change /veh RGS16 (11746705_a_at) / RFU VCAN (11755009_s_at) / Fold change /veh VCAN (11755009_s_at) / RFU RHOB (11743442_s_at) / Fold change /veh RHOB (11743442_s_at) / RFU RGS16 (11720943_a_at) / Fold change /veh RGS16 (11720943_a_at) / RFU RGS16 (11720944_at) / Fold change /veh RGS16 (11720944_at) / RFU, VPS4B / Fold change vs veh, VPS4B / RFU, CREB1 / Fold change vs veh, CREB1 / RFU, DNAJC13 / Fold change vs veh, DNAJC13 / RFU, GNAQ / Fold change vs veh, GNAQ / RFU, CDK5R1 / Fold change vs veh, CDK5R1 / RFU, ZRANB3 / Fold change vs veh, ZRANB3 / RFU, CUL4A / Fold change vs veh, CUL4A / RFU, CCNY / Fold change vs veh, CCNY / RFU, UFL1 / Fold change vs veh, UFL1 / RFU, COG3 / Fold change vs veh, COG3 / RFU, DIAPH2 / Fold change vs veh, DIAPH2 / RFU, SKA2 / Fold change vs veh, SKA2 / RFU, AFF3 / Fold change vs veh, AFF3 / RFU, LMF1 / Fold change vs veh, LMF1 / RFU, IPO11 / Fold change vs veh, IPO11 / RFU, DFFB / Fold change vs veh, DFFB / RFU, FOXP1 / Fold change vs veh, FOXP1 / RFU, CARD8 / Fold change vs veh, CARD8 / RFU, STRN3 / Fold change vs veh, STRN3 / RFU, ADK / Fold change vs veh, ADK / RFU, RASSF2 / Fold change vs veh, RASSF2 / RFU, WIPF1 / Fold change vs veh, WIPF1 / RFU, LARP1B / Fold change vs veh, LARP1B / RFU, RASA1 / Fold change vs veh, RASA1 / RFU, RB1 / Fold change vs veh, RB1 / RFU, PPFIA1 / Fold change vs veh, PPFIA1 / RFU, MAT2A / Fold change vs veh, MAT2A / RFU, CCT5 / Fold change vs veh, CCT5 / RFU, WDR92 / Fold change vs veh, WDR92 / RFU, CUX1 / Fold change vs veh, CUX1 / RFU, TTC7A / Fold change vs veh, TTC7A / RFU, TMEM135 / Fold change vs veh, TMEM135 / RFU, DEPTOR / Fold change vs veh, DEPTOR / RFU, CPM / Fold change vs veh, CPM / RFU, DNAJB6 / Fold change vs veh, DNAJB6 / RFU, CACNA2D3 / Fold change vs veh, CACNA2D3 / RFU, DTX4 / Fold change vs veh, DTX4 / RFU, TFCP2 / Fold change vs veh, TFCP2 / RFU, GMCL1 /// GMCL1P1 / Fold change vs veh, GMCL1 /// GMCL1P1 / RFU, AEBP2 / Fold change vs veh, AEBP2 / RFU, SNHG1 /// SNORD22 /// SNORD25 /// SNORD26 /// SNORD27 /// SNORD28 /// SNORD29 /// SNORD31 / Fold change vs veh, SNHG1 /// SNORD22 /// SNORD25 /// SNORD26 /// SNORD27 /// SNORD28 /// SNORD29 /// SNORD31 / Fold change (Aza/veh), C12orf56 (ProbeSet 11735607_a_at) / Fold change (ACY-1035/veh), C12orf56 (ProbeSet 11735607_a_at) / Fold change (Aza/veh), FGFR1OP (ProbeSet 11751329_s_at) / Fold change (ACY-1035/veh), FGFR1OP (ProbeSet 11751329_s_at) / Fold change (Aza/veh), VPS36 (ProbeSet 11739960_a_at) / Fold change (ACY-1035/veh), VPS36 (ProbeSet 11739960_a_at) / RFU SYPL1 (11715823_x_at) / Fold change /veh SYPL1 (11715823_x_at) / RFU IGFBP7 (11715501_s_at) / Fold change /veh IGFBP7 (11715501_s_at) / RFU REEP3 (11722064_at) / Fold change /veh REEP3 (11722064_at) / RFU IGLL1 (11728026_x_at) / Fold change /veh IGLL1 (11728026_x_at): dose or concentration left out as unconfirmed
Settings: ProbeSet 11747888_a_at; LIST D

Q: How did the “RFU, SH3YL1” value turn out when Nc1ccc(-c2cccs2)cc1NC(=O)c1ccc2c(c1)cc(C1CC1)n2CCN1CCOCC1 [ACY-1035] was run?
A: 63.67 RFU
